Tests used:
Type in all cases: in vivo
[1] = test system: wild pansy (Viola tricolor L; VIOTR); assay: Postemergence herbicidal activity, greenhouse, visual injury: wild pansy; design: key: visual injury, 0–100%: 0 = no injury, 100 = complete kill
Outline: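 Injury was rated visually on a 0 (none) to 100% (complete kill) scale 20-22 d after treatment, relative to solvent-blank plants. Treatments were two-way safener/herbicide combinations in 1.5% v/v crop oil concentrate, applied overhead at 187 L/ha to plants at the 2nd–3rd true leaf stage. Colby's equation gave expected mixture effects.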

[2] = test system: scented mayweed (Matricaria chamomila L; MATCH); assay: Postemergence herbicidal activity, greenhouse, visual injury: scented mayweed; design: key: % visual injury: 0 = no injury, 100 = complete kill
Method: Evaluation of Postemergence Herbicidal Safening in Cereal Crops
Seeds of the desired test plant species were planted in Sun Gro MetroMix® 306 planting mixture, which typically has a pH of 6.0 to 6.8 and an organic matter content of about 30 percent, in plastic pots with a surface area of 103.2 square centimeters (cm^2). When required to ensure good germination and healthy plants, a fungicide treatment and/or other chemical or physical treatment was applied. The plants were grown for 7-36 days (d) in a greenhouse with an approximate 14-hour (h) photoperiod which was maintained at about 18° C. during the day and 17° C. during the night. Nutrients and water were added on a regular basis and supplemental lighting was provided with overhead metal halide 1000-Watt lamps as necessary. The plants were employed for testing when they reached the second or third true leaf stage.
Weighed amounts of esters (methyl) or salts (TEA [triethylammonium], K [potassium]) of 4-amino-3-chloro-6-(4-chloro-2-fluoro-3-methoxyphenyl)pyridine-2-carboxylic acid (Compound 1) were dissolved in a volume of 97:3 volume/volume (v/v) acetone/dimethylsulfoxide (DMSO) to obtain stock solutions. […] The concentrated stock solutions were diluted with an aqueous mixture of 1.5% v/v of Agri-dex crop oil concentrate to provide the appropriate application rates. Compound requirements are based upon a 12 mL application volume at a rate of 187 liters per hectare (L/ha). Stocks solutions of the safeners were prepared following the same procedure. Spray solutions of the safeners and experimental compound mixtures were prepared by adding the stock solutions to the appropriate amount of dilution solution to form a 12 mL spray solution with active ingredients in two-way combinations. Formulated compounds were applied to the plant material with an overhead Mandel track sprayer equipped with 8002E nozzles calibrated to deliver 187 L/ha over an application area of 0.503 square meters (m^2) at a spray height of 18 inches (43 centimeters (cm)) above average plant canopy. Control plants were sprayed in the same manner with the solvent blank.
The treated plants and control plants were placed in a greenhouse as described above and watered by sub-irrigation to prevent wash-off of the test compounds. After 20-22 d, the condition of the test plants as compared with that of the control plants was determined visually and scored on a scale of 0 to 100 percent where 0 corresponds to no injury and 100 corresponds to complete kill.
Colby's equation was used to determine the herbicidal effects expected from the mixtures (Colby, S. R. Calculation of the synergistic and antagonistic response of herbicide combinations. Weeds 1967, 15, 20-22.).
The following equation was used to calculate the expected activity of mixtures containing two active ingredients, A and B: Expected=A+B−(A×B/100)
A=observed efficacy of active ingredient A at the same concentration as used in the mixture.
B=observed efficacy of active ingredient B at the same concentration as used in the mixture.

[3] = test system: wheat (Triticum aestivum L; TRZAS); assay: Postemergence herbicidal safening, greenhouse, visual injury: wheat
Outline: (§1)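 Track-sprayer application, 187 L/ha, of Compound 1 (methyl ester, TEA or K salt) in two-way mixes with safeners, diluted from acetone/DMSO 97:3 stocks into 1.5% Agri-dex. Plants at 2–3 true leaves, sub-irrigated. Visual rating 0–100% vs solvent blank after 20-22 d.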

[4] = test system: barley (Hordeum vulgare L; HORVS); assay: Postemergence herbicidal safening, greenhouse, visual injury: barley
Outline: as §1

[5] = Compound 1 K salt 8.75 g/ha alone
[6] = Compound 1 K salt 17.5 g/ha alone
[7] = Compound 1 K salt 35 g/ha alone

Row | Compound | VIOTR Ob (Observed values) ([1]; Glyphosate 52.5 g/ha alone) | MATCH Ob (Observed values) ([2]; Glyphosate 52.5 g/ha alone) | TRZAS Ob (Observed values) ([3]; Glyphosate 52.5 g/ha alone) | HORVS Ob (Observed values) ([4]; Glyphosate 52.5 g/ha alone) | VIOTR Ob (Observed values) [1, 5] | VIOTR Ob (Observed values) [1, 6] | VIOTR Ob (Observed values) [1, 7] | MATCH Ob (Observed values) [2, 5] | MATCH Ob (Observed values) [2, 6] | MATCH Ob (Observed values) [2, 7] | TRZAS Ob (Observed values) [3, 5] | TRZAS Ob (Observed values) [3, 6] | TRZAS Ob (Observed values) [3, 7] | HORVS Ob (Observed values) [4, 5] | HORVS Ob (Observed values) [4, 6] | HORVS Ob (Observed values) [4, 7]
1 | O=C(O)CNCP(=O)(O)O [Glyphosate] | 52 | 28 | 48 | 13 |  |  |  |  |  |  |  |  |  |  |  | 
2 | COc1c(Cl)ccc(-c2cc(N)c(Cl)c(C(=O)[O-])n2)c1F.[K+] [1 K salt] |  |  |  |  | 20 | 48 | 42 | 50 | 62 | 57 | 5 | 8 | 27 | 1.7 | 3.3 | 6.7

Reference: patent US8921267B2, “Safening 6-(trisubstituted phenyl)-4-amino-2-pyridinecarboxylate herbicide injury on cereal crops” (Dow AgroSciences LLC, priority 2008, dated 2014)
